Measurements published in patent publication US8404727B2, “Pharmaceutical composition that includes a dipeptidyl peptidase-IV inhibitor” (Glenmark Pharmaceuticals S.A., priority 2009, dated 2013).
Where a name gives a salt, the structure may show the parent alone.

Experiments:
[1] = Compatibility study of melogliptin mesylate with various excipients: related substances (RS) by HPLC; type: physicochemical; conditions: sealed glass vial
Source text: Melogliptin Mesylate was Subjected for Compatibility Studies in Solid State Condition with Dry Mixing Technique Using the Following Protocol:
Melogliptin mesylate and various excipients in predetermined w/w ratios were mixed geometrically. Melogliptin mesylate to excipients ratios were selected based on the excipients concentration expected to be used during the development of the formulation. The placebo of each excipient used was kept on respective stability conditions as control.
The samples were stored in glass vials. The vials were closed with rubber stoppers and sealed with aluminum seals, and kept in upright position.
The vials were stored at three storage conditions: 25° C., 30° C. and 40° C.
The samples were analyzed initially, then followed by the end of 1 week, 2 weeks and 4 weeks time periods for related substances (RS), as monitored by HPLC and differential scanning calorimetry (DSC), to study the interaction between melogliptin and various excipients.
The compatibility data in terms of RS generated initially and upon 4 weeks (“4 W”) storage at about 40° C. of various samples are tabulated below.
Brief Analytical Method for Determination of RS in Melogliptin Mesylate:
A reversed-phase gradient HPLC method was developed. The analysis was performed using C18 HPLC column (Phenomenex Gemini 110 A, C-18, 50×4.6 mm, 3 μm). The mobile phase was a gradient mixture of a solution of 1.26 g of ammonium formate in 1000 ml of purified water adjusted to pH 8.4 using 25% v/v ammonia solution (Mobile Phase A) and a solution of 1.26 g of ammonium formate in a mixture of purified water (800 ml) and acetonitrile (200 ml) adjusted to pH 8.4 using 25% v/v ammonia solution (Mobile Phase B). The gradient program is provided below. The flow rate was 1.0 ml/min; injection volume 20 μl; and column temperature was 25° C. Suitable dilutions of the placebo, standard and test samples were injected in the column. Areas for impurity A (eluted at the relative retention time of 0.51) and total RS in the chromatogram were integrated, and accordingly the contents of impurity A and total RS were determined.

[2] = 4 weeks storage at about 40° C.
[3] = dry mix of melogliptin mesylate with excipient, initial

N=C1[C@@H]2C[C@H](F)CN2C(=O)CN1[C@@H]1CC[C@H](Cn2cncn2)C1 (stereo in doubt) (as salt: mesylate) [impurity A, 7-fluoro-1-imino-2-[3-(1H-1,2,4-triazol-1-ylmethyl)cyclopentyl] hexahydropyrrolo[1,2-a]pyrazin-4(1H)-one mesylate]
melting point: 150 to 160 °C

N=C1[C@@H]2C[C@H](F)CN2C(=O)CN1[C@@H]1CC[C@H](Cn2cncn2)C1 (stereo in doubt) [Example 11, 7-fluoro-1-imino-2-[3-(1H-1,2,4-triazol-1-ylmethyl)cyclopentyl] hexahydropyrrolo[1,2-a]pyrazin-4(1H)-one]
melting point: 158 to 162 °C

N#C[C@@H]1C[C@H](F)CN1C(=O)CN[C@@H]1CC[C@H](Cn2cncn2)C1 [Melogliptin mesylate, (2S,4S)-1-{2-[(3S,1R)-3-(1H-1,2,4-triazol-1-ylmethyl)cyclopentylamino]acetyl}-4-fluoropyrrolidine-2-carbonitrile]
RS by HPLC, Impurity A, 4 W [1, 2]: 0.05 % w/w | RS by HPLC, Total RS, 4 W [1, 2]: 0.13 % w/w | RS by HPLC, Impurity A, Initial [1, 3]: 0.02 % w/w | RS by HPLC, Total RS, Initial [1, 3]: 0.12 % w/w
